# Key:
# PA LDC = target: T1, PA LDC (Pseudomonas aeruginosa, UniProt Q9HTZ1); test: LDC assay (tetrapeptide Lys cleavage, Amplex Red detection of D-Ala) with purified PA LDC; assay type: biochemical; conditions: 10 minutes preincubation at room temperature before tetrapeptide substrate, read-out: IC50, inhibition of PA LDC
# T1 construct: hexahistidine (pET14b N-terminal leader) (N); made in house; host or cells: E. coli BL21 (plasmid pPALDC1, pET14b)
# Procedure: (§1) The assay consists of two parts: (i) cleavage of peptide substrate by LDC enzyme, and (ii) detection of the D-Ala cleavage product using Amplex Red. Conditions for E. coli LDC cleavage were established using a modification of conditions presented by Templin et al. (1999). The cleavage assay was assembled in black 96 half area flat bottom plates (Costar, 3694) (Corning Life Sciences, Acton, Mass.) and consisted of LDC at the indicated concentration in 30 μl (microliters) of 100 mM (milliMolar) Tris-HCl pH 8.5 containing 25 μg/ml of bovine serum albumin (B4287 Sigma, St. Louis, Mo.). “Tetrapeptide Lys” substrate L-Ala-γ-D-Glu-L-Lys-D-Ala was synthesized by SynPep, Inc. (Dublin, Calif.). […] Inhibitor compounds were added to the enzyme in 2 μl of 30% dimethyl sulfoxide and incubated for 10 minutes at room temperature, prior to the addition of tetrapeptide. The negative control received 2 μl of 30% dimethyl sulfoxide alone without any compound.
# (§2) The principle of the detection system is oxidation of D-Ala by the enzyme D-amino acid oxidase to produces hydrogen peroxide. […] The detection reaction was incubated for 30 minutes at 37° C., and the plates were read on a SpectraMax Gemini (excitation 530 nm, emission 590 nm) (Molecular Devices, Sunnyvale, Calif.). […]
# E. coli LDC = E. coli LDC (Escherichia coli, UniProt P76008); test: LDC assay (tetrapeptide cleavage, Amplex Red detection) with E. coli LDC; assay type: biochemical
# E. coli LDC, sequence (P76008 whole entry): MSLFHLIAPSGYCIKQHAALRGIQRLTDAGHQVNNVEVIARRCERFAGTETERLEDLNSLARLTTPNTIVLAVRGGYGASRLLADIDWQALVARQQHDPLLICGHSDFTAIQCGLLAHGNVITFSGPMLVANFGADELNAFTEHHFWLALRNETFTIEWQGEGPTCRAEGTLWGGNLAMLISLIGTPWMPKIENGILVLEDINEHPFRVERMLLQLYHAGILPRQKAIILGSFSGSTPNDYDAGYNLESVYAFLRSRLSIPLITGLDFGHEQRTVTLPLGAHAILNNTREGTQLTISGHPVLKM
# Procedure: as §1, §2
# LDC = LDC (Escherichia coli, UniProt P76008); conditions: Templin et al., 1999; cited from earlier work
# LDC, sequence (P76008 whole entry): as above
# T1 sequence (Q9HTZ1 whole entry): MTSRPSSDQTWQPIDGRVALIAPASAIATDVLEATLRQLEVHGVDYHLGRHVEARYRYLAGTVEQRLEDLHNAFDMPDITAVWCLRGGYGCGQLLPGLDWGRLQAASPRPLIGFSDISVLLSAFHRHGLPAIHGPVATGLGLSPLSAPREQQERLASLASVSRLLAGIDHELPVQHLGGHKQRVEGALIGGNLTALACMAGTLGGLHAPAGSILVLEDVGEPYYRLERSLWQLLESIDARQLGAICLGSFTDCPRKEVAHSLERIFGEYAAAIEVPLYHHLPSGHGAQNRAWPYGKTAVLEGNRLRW
smiles,measurement,setting,value
"O=C(O)C=CC(=O)c1ccc2c(c1)NC(=O)CO2 [3,4-dihydro-g,3-dioxo-2H-1,4-Benzoxazine-6-crotonic acid]",IC50,PA LDC,170 µM
same,IC50,E. coli LDC,12 µM
"O=C(Sc1nc2ccccc2nc1SC(=O)c1cc2ccccc2o1)c1cc2ccccc2o1 [2-Benzofurancarbothioic acid, S,S′-2,3-quinoxalinediyl ester]",IC50,PA LDC,0.1 µM
same,IC50,E. coli LDC,1.4 µM
N[C@H](CCOc1ccc(/C(=N/O)C(=O)N[C@H]2CN([C@@H](C(=O)O)c3ccc(O)cc3)C2=O)cc1)C(=O)O [Nocardicin A],Inhibition of LDC,LDC,inhibited

# Reference: US20070212705A1, “P[…]-D CARBOX[…], EXPRESSION AND ACTIVITY” (priority 2005, published 2007)
